This note sets out measurements from ChEMBL document CHEMBL1201862, “PubChem BioAssay data set” (2004).

Structures are written as SMILES.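 Tested at 5 concentrations; 48 h exposure; 96-well plates; endpoints linearly interpolated, else capped at highest concentration. GI50 marks 50% less growth.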 Active and inactive are the calls of the source. Cut-off read from the data, not from the text of the source: active = GI50 up to about 1.1 µM and inactive = higher. A value given as a limit tells only on which side of the number the result lay.

Among the test systems are SK-MEL-2; HCT-116; OVCAR-5; UACC-257; EKVX; OVCAR-4; SF-295; MDA-N; LOX IMVI; M14; RPMI-8226; SNB-19; A498; MOLT-4; MCF7; CAKI-1; KM12; MDA-MB-231; HOP-92; Malme-3M.
What all share (assay): DTP human tumour cell line panel, 48 h

Usually GI50 stands for the concentration at which growth is held to half of that of the control. For the molecule `COc1ccc2[nH]c(C(=O)N3CC(CCl)c4c3cc(N)c3ccccc43)cc2c1` (stereo not drawn), the GI50 in the test with SK-MEL-2 was 0.0122 µM (active); with HCT-116 it was < 0.01 µM (active); with OVCAR-5, < 0.01 µM (active); with UACC-257, 0.0119 µM (active); with EKVX, < 0.01 µM (active); in the test with OVCAR-4 it was < 0.01 µM (active). Moreover, the GI50 in the test with SF-295 is < 0.01 µM (active); in the test with MDA-N it was 0.0112 µM (active); in the test on LOX IMVI it was < 0.01 µM (active); in the test with M14, < 0.01 µM (active); in the test on RPMI-8226, 0.0122 µM (active); with SNB-19, < 0.0154 µM (active). Further, the GI50 in the test with A498 is 0.0116 µM (active); in the test on MOLT-4, < 0.01 µM (active); with MCF7, < 0.01 µM (active); with CAKI-1, < 0.01 µM (active); in the test with KM12 it was < 0.01 µM (active); with MDA-MB-231, < 0.0204 µM (active). Besides, the GI50 in the test with HOP-92 is < 0.018 µM (active).

With `CN(C)CCNC(=O)c1cccc2[nH]c(-c3ccncc3)nc12`, the GI50 in the test on SK-MEL-2 is 4.28 µM (inactive); with HCT-116, 4.07 µM (inactive); with OVCAR-5, 10.1 µM (inactive); with UACC-257, 1.83 µM (inactive); in the test with EKVX, 12.4 µM (inactive); with OVCAR-4, 9.29 µM (inactive). Further, the GI50 is 3.02 µM (inactive) in the test with SF-295; 1.74 µM (inactive) in the test with MDA-N; 0.733 µM (active) in the test on LOX IMVI; 1.82 µM (inactive) with M14; 3 µM (inactive) with RPMI-8226; 1.91 µM (inactive) in the test with Malme-3M. Moreover, the GI50 was 10.7 µM (inactive) in the test with SNB-19; 4.05 µM (inactive) in the test on A498; 3.56 µM (inactive) with MOLT-4; 3.44 µM (inactive) in the test with MCF7; 2.55 µM (inactive) in the test with CAKI-1; 4.17 µM (inactive) with KM12. The GI50 with MDA-MB-231 is 3.24 µM (inactive); in the test on HOP-92, 6.82 µM (inactive).

On to `COc1cc(CN(C)N2C(=O)c3cccc4cc([N+](=O)[O-])cc(c34)C2=O)cc(OC)c1OC`, for which the GI50 in the test on SK-MEL-2 was > 100 µM (inactive); in the test on OVCAR-5, > 100 µM (inactive); with OVCAR-4 it was > 100 µM (inactive); in the test on SF-295, 54.6 µM (inactive); with MDA-N, > 100 µM (inactive); in the test on M14, > 100 µM (inactive). In addition, the GI50 is > 100 µM (inactive) in the test on RPMI-8226; > 100 µM (inactive) in the test with Malme-3M; > 100 µM (inactive) in the test on SNB-19; > 100 µM (inactive) with A498; 27.6 µM (inactive) in the test on MOLT-4; > 100 µM (inactive) with MCF7. The GI50 in the test with CAKI-1 was > 100 µM (inactive); in the test with KM12, > 100 µM (inactive); with MDA-MB-231, 81.3 µM (inactive); with HOP-92, > 100 µM (inactive).

With `COc1nc(Cl)nc(N[C@H](C)c2c3ccccc3cc3ccccc23)n1`, the GI50 is 15.8 µM (inactive) in the test on SK-MEL-2; 12.4 µM (inactive) in the test with HCT-116; 17.3 µM (inactive) in the test with OVCAR-5; 16 µM (inactive) with UACC-257; 16.1 µM (inactive) in the test with EKVX; 3.12 µM (inactive) with OVCAR-4. For the same molecule, the GI50 with SF-295 was 15.6 µM (inactive); with MDA-N, 2.71 µM (inactive); in the test with LOX IMVI, 15.6 µM (inactive); in the test with RPMI-8226, 5.3 µM (inactive); in the test on SNB-19 it was 16.3 µM (inactive); with A498, < 0.01 µM (active). Further, the GI50 is 14.1 µM (inactive) in the test with MOLT-4; 14.2 µM (inactive) in the test on MCF7; 11.6 µM (inactive) with CAKI-1; 11.7 µM (inactive) in the test on KM12; 13.9 µM (inactive) in the test on MDA-MB-231; 18.6 µM (inactive) in the test with HOP-92.

Turning to `c1ccc(C2=NCCN2)c(C2=NCCN2)c1`, the GI50 in the test on SK-MEL-2, in the test with HCT-116, in the test with OVCAR-5, in the test with UACC-257, in the test with EKVX and with OVCAR-4 was > 100 µM (inactive) in each case. Also, the GI50 with SF-295, with MDA-N, in the test with LOX IMVI, in the test on M14, with RPMI-8226 and with Malme-3M was > 100 µM (inactive) throughout. The GI50 in the test on SNB-19, in the test on A498, in the test on MOLT-4, in the test on MCF7, in the test with CAKI-1 and with KM12 was > 100 µM (inactive) in each case. In addition, the GI50 with MDA-MB-231 and in the test on HOP-92 was > 100 µM (inactive) in each case.

Take `COc1ccc2oc3c(ccc[n+]3C)c(=O)c2c1`: the GI50 with SK-MEL-2, in the test with HCT-116, in the test with OVCAR-5, with EKVX, in the test on OVCAR-4 and with SF-295 was > 100 µM (inactive) in each case. Besides, the GI50 with MDA-N, in the test with LOX IMVI, in the test on M14, with Malme-3M, in the test on SNB-19 and in the test with A498 was > 100 µM (inactive) throughout. Further, the GI50 in the test on MCF7, in the test on CAKI-1, in the test on KM12, in the test with MDA-MB-231 and in the test on HOP-92 was > 100 µM (inactive) in each case.

Regarding `Cc1cccc2sc(-c3ccc(O)cc3)nc12`, the GI50 in the test on SK-MEL-2 was 17.7 µM (inactive); with HCT-116, 15.6 µM (inactive); with OVCAR-5, 16.4 µM (inactive); in the test on UACC-257 it was 18.8 µM (inactive); in the test on EKVX, 0.579 µM (active); in the test with OVCAR-4, 16 µM (inactive). The GI50 in the test on SF-295 was 14.6 µM (inactive); with MDA-N it was 3.97 µM (inactive); with LOX IMVI, 18.4 µM (inactive); with M14 it was 15.2 µM (inactive); in the test on RPMI-8226, 20.9 µM (inactive); with Malme-3M it was 16.9 µM (inactive). Moreover, the GI50 with SNB-19 was 17.8 µM (inactive); with A498 it was 3.15 µM (inactive); in the test with MOLT-4, 43.7 µM (inactive); in the test on MCF7, 12.2 µM (inactive); in the test with CAKI-1, 16.5 µM (inactive); in the test on KM12, 15.5 µM (inactive). The GI50 with MDA-MB-231 was 19.8 µM (inactive).

Consider `O=c1cnn(C/C=C/CP(=O)(O)O)c(=O)[nH]1`, for which the GI50 in the test on SK-MEL-2, in the test on OVCAR-5, with UACC-257, with EKVX, with MDA-N and in the test on LOX IMVI was > 100 µM (inactive) throughout. Besides, the GI50 in the test with M14, in the test on RPMI-8226, in the test on Malme-3M, in the test on SNB-19, in the test with A498 and in the test on MCF7 was > 100 µM (inactive) throughout. Further, the GI50 in the test on CAKI-1, in the test on KM12, in the test with MDA-MB-231 and in the test on HOP-92 was > 100 µM (inactive) each time.

As for `COc1ccc2c(=O)c(O)c(-c3ccc(OC)c(OC)c3)oc2c1`, the GI50 is 4.97 µM (inactive) with HCT-116; 20.8 µM (inactive) with OVCAR-5; 6.76 µM (inactive) with UACC-257; 6.95 µM (inactive) in the test with EKVX; 0.191 µM (active) in the test with OVCAR-4; 10.1 µM (inactive) with SF-295. For the same molecule, the GI50 in the test with MDA-N is > 100 µM (inactive); in the test with LOX IMVI, 5.58 µM (inactive); in the test with M14, 5.45 µM (inactive); in the test with RPMI-8226, 4.09 µM (inactive); in the test with Malme-3M it was 15.1 µM (inactive); in the test on SNB-19, 15.8 µM (inactive). In addition, the GI50 in the test with A498 was 4.97 µM (inactive); with MOLT-4 it was 3.22 µM (inactive); with MCF7 it was 3.74 µM (inactive); in the test on CAKI-1, 3.44 µM (inactive); in the test on MDA-MB-231, 4.8 µM (inactive); with HOP-92 it was 4.18 µM (inactive).

As for `CN(C)CCNc1ccc2nnn3c4ccc(O)cc4c(=O)c1c23`, the GI50 with SK-MEL-2 was 9.79 µM (inactive); in the test with HCT-116, 1.35 µM (inactive); in the test on OVCAR-5, 4.41 µM (inactive); with UACC-257 it was 9.71 µM (inactive); with EKVX it was 3.13 µM (inactive); in the test on OVCAR-4, 2.08 µM (inactive). Besides, the GI50 in the test on SF-295 is 2.54 µM (inactive); in the test on MDA-N, 1.86 µM (inactive); in the test with LOX IMVI it was 1.5 µM (inactive); in the test on M14, 7.59 µM (inactive); in the test with RPMI-8226, 2.06 µM (inactive); in the test with Malme-3M it was 5.05 µM (inactive). Also, the GI50 was 7.89 µM (inactive) in the test with SNB-19; 3.71 µM (inactive) in the test on A498; 0.168 µM (active) in the test with MOLT-4; 2.44 µM (inactive) in the test with MCF7; 3.13 µM (inactive) in the test with CAKI-1; 2.32 µM (inactive) in the test on KM12. The GI50 was 0.273 µM (active) with MDA-MB-231 and 4.59 µM (inactive) in the test with HOP-92.
